Like-named read-outs stand apart in the source and are kept apart here.
Key:
Format in all cases: cell-based
[1] = target: T1, P2X7 receptor (Rattus norvegicus, UniProt Q64663); assay: Whole-cell recordings of agonist-evoked currents in HEK293 cells transfected with rat P2X7 cDNA (Example 2); conditions: for agonist effect (evoking inward current): concentration 300 to 1000 μM; for EC50: read-out: EC50 (half-maximal concentration) for current
T1 construct: yielding a construct that encoded the entire P2X7 protein; expressed in transfected cells
T1 sequence (Q64663 1-595): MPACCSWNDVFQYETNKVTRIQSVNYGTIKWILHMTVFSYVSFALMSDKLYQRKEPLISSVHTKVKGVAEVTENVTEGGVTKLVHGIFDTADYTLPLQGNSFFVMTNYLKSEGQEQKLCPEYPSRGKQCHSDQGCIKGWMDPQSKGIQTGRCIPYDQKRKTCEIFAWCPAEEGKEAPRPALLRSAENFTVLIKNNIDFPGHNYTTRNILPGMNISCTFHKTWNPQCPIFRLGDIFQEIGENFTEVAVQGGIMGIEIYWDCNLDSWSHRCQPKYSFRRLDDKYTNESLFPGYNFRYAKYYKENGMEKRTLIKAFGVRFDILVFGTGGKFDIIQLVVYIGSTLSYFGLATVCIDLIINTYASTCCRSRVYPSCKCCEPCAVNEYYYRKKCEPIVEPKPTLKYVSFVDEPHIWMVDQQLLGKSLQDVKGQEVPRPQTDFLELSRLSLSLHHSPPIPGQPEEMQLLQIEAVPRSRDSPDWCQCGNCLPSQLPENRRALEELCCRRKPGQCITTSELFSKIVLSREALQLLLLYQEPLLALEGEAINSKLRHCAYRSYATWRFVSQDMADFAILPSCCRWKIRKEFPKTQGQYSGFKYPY
Experimental: (§1) Whole-cell recordings were obtained at room temperature from HEK293 cells transiently or stably transfected with P2X7 cDNA, from HEK293 cells transiently transfected with P2X7ΔC cDNA, and from J774A.1 cells (American Type Culture Collection, Rockville, Md.). Agonist were applied for periods of 1 to 3 s by a fast-flow U-tube delivery system (Fenwick et al, J. Physiol. (London) 331:577 (1982)). The internal pipette solution was 140 mM cesium-aspartate or potassium-aspartate, 20 mM NaCl, 10 mM EGTA, and 5 mM Hepes: normal external solution was 145 mM NaCl, 2 mM KCl, 2 mM CaCl2, 1 mM MgCl2, 10 mM Hepes, and 12 mM glucose. Low divalent external solution was nominally magnesium-free with 0.3 mM CaCl2. For cells expressing P2X7 receptors and J774 cells, concentration-response curves were constructed in low divalent solution by recording currents in response to 1-s applications of agonist at 8-min intervals with normal external solution present for 6 min before each application. This protocol was necessary to prevent the development of sustained inward currents. Lipofectin was used for transfection (Buell et al, EMBO J. 15:55 (1996)).
Reversal potentals (Erev) were obtained by application of ATP (300 μM) or BzATP (30 μM) while the membrane was held at various potentals or by application of voltage ramps from −120 to 30 or 50 mV. Permeability ratios from (Erev) were calculated by first computing α (=Pna/PK, where P is permeability) for internal (i) and external (o) concentrations [Na]i=20 mM, [Na]o=145 mM, [Ko]=0 mM, and [K]i=140 mM from α={[145/exp(Erev)F/RT −20]}/140 (where F is the Faraday, R is the gas constant, and T is the absolute temperature). Other PK/PNa values, when [X]o=145 mM, [Na]i=20 mM, [K]i=140 mM, and [Na]o=[K]o=[X]i=0 mM, were computed from PK/PNa={[exp (ErevF/RT) (20=140α)}/145. In order of size (FIG. 3C), X was cesium, methylamine, tris(hydroxymethyl)-aminomethane, tetraethylammonium, and N-methyl-D-glucamine. The internal solution also contained 10 mM EGTA and 5 mM Hepes. External solutions also contained 10 mM glucose and normal or low concentrations of divalent cations; pH was maintained at 7.3 with HCl, histidine, or Hepes as required, and the osmolarity of all solutions was 295 to 315.

[2] = target: T1, P2X7 receptor; assay: as above; conditions: inward currents, brief application (0.5 to 2 s)
[3] = target: T2, rP2X7 receptor (Rattus norvegicus, UniProt Q64663); assay: Whole-cell recordings in HEK293 cells transiently transfected with rP2X7 receptors (Example 3)
T2 construct: yielding a construct that encoded the entire P2X7 protein; expressed in transfected cells
T2 sequence (Q64663 1-595): T1 sequence (Q64663 1-595)
Experimental: (§2) Cell culture. HEK293 cells were transiently transfected with cDNA (1 μg/ml) and lipofectin dissolved in Optimem (GIBCO) placed into petri dishes containing four coverslips onto which cells were plated at a density of about 8×10^4/coverslip. Cells were washed 5 h later and normal DMEM applied. Electrophysiological studies or dye uptake measurements were carried out 18-49 h later. For each set of transfections, parallel experiments were performed on HEK cells transfected with cDNA encoding both rP2X7 and hP2X7 receptors.
(§3) Electrophysiological experiments. Whole-cell recordings were made using the EPC9 patch-clamp amplifier and Pulse acquisition programs (HEKA, Lambrecht, Germany). Patch pipettes (5-7 MΩ) contained (mM) CsCl or NaCl 154, EGTA 10, HEPES 5. The normal extracellular solution contained (mM) NaCg 147, KCl2, CaCl2 2, MgCl2 1, HEPES 10 and glucose 12, and the “low divalent” solution had no magnesium and 0.3 mM CaCl2. Agonists were delivered by U-tube delivery system; antagonists, when applied, were present in both superfusion and U-tube. Experiments were carried out at room temperature.

[4] = target: T3, hP2X7 receptor (Homo sapiens, UniProt Q99572); assay: Whole-cell recordings in HEK293 cells transiently transfected with hP2X7 receptors (Example 3)
T3 construct: a clone containing the complete open reading frame of the hP2X7 receptor was constructed; expressed in transfected cells; host or cells: HEK293 (transient), pcDNA3
T3 sequence (Q99572 1-595): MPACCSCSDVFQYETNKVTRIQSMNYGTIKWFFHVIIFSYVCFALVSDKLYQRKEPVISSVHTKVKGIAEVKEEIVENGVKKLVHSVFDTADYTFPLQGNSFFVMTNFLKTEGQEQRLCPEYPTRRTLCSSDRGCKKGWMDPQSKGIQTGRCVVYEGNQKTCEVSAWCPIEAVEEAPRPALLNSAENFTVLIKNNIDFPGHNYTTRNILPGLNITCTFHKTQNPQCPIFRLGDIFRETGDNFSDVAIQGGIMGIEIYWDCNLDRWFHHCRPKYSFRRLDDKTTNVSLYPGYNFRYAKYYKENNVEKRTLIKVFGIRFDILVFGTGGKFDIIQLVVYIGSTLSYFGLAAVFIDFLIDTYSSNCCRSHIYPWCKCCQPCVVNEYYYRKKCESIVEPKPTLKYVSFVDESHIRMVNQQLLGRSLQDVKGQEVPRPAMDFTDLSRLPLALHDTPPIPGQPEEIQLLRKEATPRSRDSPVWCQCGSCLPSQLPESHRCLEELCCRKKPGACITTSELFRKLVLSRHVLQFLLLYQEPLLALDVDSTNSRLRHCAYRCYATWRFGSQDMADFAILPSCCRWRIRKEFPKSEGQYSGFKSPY
Experimental: as §2, §3

[5] = system: J774 cells; assay: Whole-cell recordings of BzATP-evoked currents in J774 macrophage cells; conditions: three J774 cells; read-out: half-maximal inhibition of currents evoked by 30 μM BzATP
Experimental: as §1

[6] = percentage of value in 1 mM magnesium
[7] = vs 30 μM BzATP, n=3, read-out: concentration causing half-maximal inhibition of currents

Nc1ncnc2c1ncn2[C@@H]1O[C@H](CO)[C@@H](O)[C@H]1O [adenosine]
agonist effect (evoking inward current) [1]: ineffective

Nc1ncnc2c1ncn2[C@@H]1O[C@H](COP(=O)(O)OP(=O)(O)O)[C@@H](O)[C@H]1O [ADP]
agonist order of potency [2]: BzATP>>ATP>2MeSATP>ATP-γ-S>>ADP

NC(N)=NC(=O)c1nc(Cl)c(N2CCCCCC2)nc1N [hexamethylene amiloride]
blocking current evoked by 30 μM BzATP ([1]; 100 μM, n=6): ineffective

[Mg+2] [magnesium]
IC50 ([3]; currents evoked by 30 μM BzATP, read-out: concentration of magnesium causing half-maximal inhibition of the current): 780 µM
increase of currents on removal of external magnesium [3, 6]: 420±84%
IC50 ([4]; currents evoked by 300 μM BzATP, read-out: concentration of magnesium causing half-maximal inhibition of the current): 212 µM
increase of currents on removal of external magnesium [4, 6]: 670±80%

Nc1ncnc2c1ncn2[C@@H]1O[C@H](COP(=O)(O)CP(=O)(O)OP(=O)(O)O)[C@@H](O)[C@H]1O [αβ-methylene ATP]
agonist effect (evoking inward current) [1]: ineffective

Cc1nc(N=Nc2ccc(S(=O)(=O)O)cc2S(=O)(=O)O)c(COP(=O)(O)O)c(C=O)c1O [PPADS, pyridoxal 5-phosphate-6-azophenyl 2′4′-disulfonic acid]
IC50 ([1]; four HEK cells, read-out: half-maximal inhibition of currents evoked by 30 μM BzATP): 45 ± 8 µM
IC50 [3, 7]: 51 ± 4 µM
IC50 [5]: 60 ± 9 µM

CSc1nc(N)c2ncn([C@@H]3O[C@H](COP(=O)(O)OP(=O)(O)OP(=O)(O)O)[C@@H](O)[C@H]3O)c2n1 [2MeSATP]
agonist order of potency [2]: BzATP>>ATP>2MeSATP>ATP-γ-S>>ADP

Nc1ncnc2c1ncn2[C@@H]1O[C@H](COP(=O)(O)OP(=O)(O)CP(=O)(O)O)[C@@H](O)[C@H]1O [βγ-methylene ATP]
agonist effect (evoking inward current) [1]: ineffective

Nc1ncnc2c1ncn2[C@@H]1O[C@H](COP(=O)(O)OP(=O)(O)OP(=O)(O)O)[C@@H](O)[C@H]1O [ATP]
EC50 ([1]; normal solution (2 mM CaCl2, 1 mM MgCl2), n=4): 115 ± 9 µM
EC50 ([1]; zero magnesium, n=7): 85 ± 8 µM
EC50 at hP2X7 relative to rP2X7 receptor (fold greater) [4]: about 10 fold
agonist order of potency [2]: BzATP>>ATP>2MeSATP>ATP-γ-S>>ADP

O=c1ccn([C@@H]2O[C@H](COP(=O)(O)OP(=O)(O)OP(=O)(O)O)[C@@H](O)[C@H]2O)c(=O)[nH]1 [UTP]
agonist effect (evoking inward current) [1]: ineffective

Nc1ncnc2c1ncn2[C@@H](C=O)O[C@@H](C=O)COP(=O)(O)OP(=O)(O)OP(=O)(O)O [Oxidized ATP]
block of currents evoked by 30 μM BzATP ([1]; 100 μM, cells preincubated for 1 to 2 hours, n=5): irreversibly blocked currents

Cc1ccc(C(=O)Nc2ccc(S(=O)(=O)O)c3cc(S(=O)(=O)O)cc(S(=O)(=O)O)c23)cc1NC(=O)c1cccc(NC(=O)Nc2cccc(C(=O)Nc3cc(C(=O)Nc4ccc(S(=O)(=O)O)c5cc(S(=O)(=O)O)cc(S(=O)(=O)O)c45)ccc3C)c2)c1 [suramin]
inhibition at 300 µM ([1]; read-out: inhibition of currents evoked by 30 μM BzATP): 15 to 38%
IC50 [3, 7]: 78 ± 3 µM

Nc1ncnc2c1ncn2[C@@H]1O[C@H](COP(=O)(O)OP(=O)(O)OP(O)(O)=S)[C@@H](O)[C@H]1O [ATP-γ-S]
agonist order of potency [2]: BzATP>>ATP>2MeSATP>ATP-γ-S>>ADP

From patent US6509163B1, “Methods of screening modulators of mammalian P2X7 purinergic receptors” (Glaxo Group Limited, priority 1997, dated 2003)
